Test results taken from US11891396B1, “5-substituted pyrido[3″,4″:4′,5′]pyrrolo[3′,2′:4,5]imidazo[1,2-a]pyrazine compounds as CK2 inhibitors” (KING FAISAL UNIVERSITY, priority 2023, dated 2024).

Tests used:
[1] = system: PC3 (prostate); test: In vitro cytotoxic activity assay (MTT), PC3; type: cell-based; settings: Homo sapiens, Prostate cell; PC3 (prostate) cells, exposed for 96 hours; read-out: IC50, concentration eliciting 50% inhibition of cell proliferation
Description: (§1) Compounds 1-15 were screened for their in vitro cytotoxic activity utilizing a 3-(4,5-dimethyl-thiazol-2-yl)-2,5-diphenyltetrazolium bromide (MTT) assay against selected cancer human cell lines consisting of PC3 (prostate), HCT116 (colon), A375 (melanoma), H1299 (lung), MIAPaCa-2 (pancreas), HL60 (leukemia), MCF7 (breast), MDA-MB-231 (breast) (T. Mosmann, J. Immunol. Meth., 1983, 65, 55-63). The cells were cultured at 37° C. in RMPI1640 medium supplemented with 10% fetal bovine serum, 50 IU/mL penicillin, and 50 μg/mL streptomycin in a 5% CO2 incubator. All cells were sub-cultured 3 times/week by trypsinisation. Viable cells were seeded and allowed to adhere for 12 h before a test drug was added in 96-well plates at an initial density of 1.0×10^5 cells/mL. Tumour cell lines were separately exposed to various concentrations of the tested compounds followed by incubation at a temperature of 37° C. during 96 h inside a medium of fresh RMPI 1640. Cells were subsequently incubated at 37° C. using MTT at 0.5 mg/mL during 4 h. After removal of supernatant, formazan crystals were dissolved in isopropanol and the optical density was measured at 570 nm. CX-4945 was used as a positive control.

[2] = system: HCT116 (colon); test: In vitro cytotoxic activity assay (MTT), HCT116; type: cell-based; settings: Homo sapiens, HCT-116; HCT116 (colon) cells, exposed for 96 hours; read-out: IC50, concentration eliciting 50% inhibition of cell proliferation
Description: as §1

[3] = system: A375 (melanoma); test: In vitro cytotoxic activity assay (MTT), A375; type: cell-based; settings: Homo sapiens, A-375; A375 (melanoma) cells, exposed for 96 hours; read-out: IC50, concentration eliciting 50% inhibition of cell proliferation
Description: as §1

[4] = system: H1299 (lung); test: In vitro cytotoxic activity assay (MTT), H1299; type: cell-based; settings: Homo sapiens, NCI-H1299; H1299 (lung) cells, exposed for 96 hours; read-out: IC50, concentration eliciting 50% inhibition of cell proliferation
Description: as §1

[5] = system: MIAPaCa-2 (pancreas); test: In vitro cytotoxic activity assay (MTT), MIAPaCa-2; type: cell-based; settings: Homo sapiens, MIA PaCa-2; MIAPaCa-2 (pancreas) cells, exposed for 96 hours; read-out: IC50, concentration eliciting 50% inhibition of cell proliferation
Description: as §1

[6] = system: HL60 (leukemia); test: In vitro cytotoxic activity assay (MTT), HL60; type: cell-based; settings: Homo sapiens, HL-60; HL60 (leukemia) cells, exposed for 96 hours; read-out: IC50, concentration eliciting 50% inhibition of cell proliferation
Description: as §1

[7] = system: MCF7 (breast); test: In vitro cytotoxic activity assay (MTT), MCF7; type: cell-based; settings: Homo sapiens; MCF7 (breast) cells, exposed for 96 hours; read-out: IC50, concentration eliciting 50% inhibition of cell proliferation
Description: as §1

[8] = system: MDA-MB-231 (breast); test: In vitro cytotoxic activity assay (MTT), MDA-MB-231; type: cell-based; settings: Homo sapiens; MDA-MB-231 (breast) cells, exposed for 96 hours; read-out: IC50, concentration eliciting 50% inhibition of cell proliferation
Description: as §1

[9] = biological target: T1, recombinant human CK2 (Homo sapiens, UniProt P68400); test: CK2 Kinase Assay (33P-ATP, substrate peptide RRRDDDSDDD); type: biochemical; settings: final ATP concentration 15 μM, 10 min at 30° C.; read-out: protein kinase CK2 IC50
T1 construct: purchased Millipore
Description: CK2 Kinase Assay was conducted using the protocol as described in Pierre F. et al; J. Med. Chem. 2011, 54, 635-654. The tested compounds in aqueous solution were added at a volume of 10 μL to a reaction mixture comprising 10 μL of assay dilution buffer (ADB; 20 mM MOPS, pH 7.2, 25 mM β-glycerol phosphate, 5 mM EGTA, 1 mM sodium orthovanadate, and 1 mM dithiothreitol), 10 μL of substrate peptide (RRRDDDSDDD, dissolved in ADB at a concentration of 1 mM), 10 μL of recombinant human CK2 (RROP-holoenzyme, 25 ng dissolved in ADB; Millipore). Reactions were initiated by the addition of 10 μL of ATP solution (90% 75 mMMgCl2, 75 μM ATP (final ATP concentration: 15 μM) dissolved in ADB; 10% [γ-33P] ATP (stock 1 mCi/100 L; 3000 Ci/mmol (Perkin-Elmer) and maintained for 10 min at 30° C. The reactions were quenched with 100 μL of 0.75% phosphoric acid and then transferred to and filtered through a phosphor cellulose filter plate (Millipore). After washing each well five times with 0.75% phosphoric acid, the plate was dried under vacuum for 5 min and, following the addition of 15 μL of scintillation fluid to each well, the residual radioactivity was measured using a Wallac luminescence counter. The IC50 values were derived from eight concentrations of test inhibitors.

T1 sequence (P68400 whole entry): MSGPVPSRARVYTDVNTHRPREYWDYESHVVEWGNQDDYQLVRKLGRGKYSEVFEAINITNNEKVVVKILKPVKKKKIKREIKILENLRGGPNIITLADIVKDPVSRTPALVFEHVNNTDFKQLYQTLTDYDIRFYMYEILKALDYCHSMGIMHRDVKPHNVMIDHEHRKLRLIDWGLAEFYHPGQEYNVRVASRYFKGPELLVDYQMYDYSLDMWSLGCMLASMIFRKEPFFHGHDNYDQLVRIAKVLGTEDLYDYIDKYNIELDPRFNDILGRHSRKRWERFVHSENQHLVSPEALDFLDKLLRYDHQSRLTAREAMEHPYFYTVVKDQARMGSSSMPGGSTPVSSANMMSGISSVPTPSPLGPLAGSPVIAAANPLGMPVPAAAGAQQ
T1 sequence (P67870 whole entry partner): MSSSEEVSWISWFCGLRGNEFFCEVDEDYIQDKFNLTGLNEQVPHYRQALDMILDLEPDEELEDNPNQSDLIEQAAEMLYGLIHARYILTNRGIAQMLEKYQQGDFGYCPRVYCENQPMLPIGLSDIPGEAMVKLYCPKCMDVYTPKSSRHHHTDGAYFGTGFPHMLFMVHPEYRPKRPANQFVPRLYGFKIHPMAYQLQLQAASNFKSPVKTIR

IC50 [9]: 47 nM
Structure (SMILES): Clc1cccc(-n2c3ccncc3c3nc4cnccn4c32)c1 [Compound 1, 5-(3-chlorophenyl)-5H-pyrido[3″,4″:4′,5′]pyrrolo[3′,2′:4,5]imidazo[1,2-a]pyrazine]
IC50 [1]: 1500 nM
IC50 [2]: 1900 nM
IC50 [3]: 4400 nM
IC50 [4]: 2100 nM
IC50 [5]: 1200 nM
IC50 [6]: 3000 nM
IC50 [7]: 5600 nM
IC50 [8]: 3900 nM
